From patent publication US6495699B2, “Metalloproteinase inhibitors, pharmaceutical compositions containing them, and their use” (Agouron Pharmaceuticals Inc., priority 1996, dated 2002) come the findings set out here.

pKi: −log10 of the molar value.

In data set [1] the target is T1, human progelatinase A (GelA), catalytic and fibronectin-like portion (Homo sapiens, UniProt P08253).
T1 construct: The catalytic and fibronectin-like portion of human progelatinase A (GelA) was expressed as a fusion protein with ubiquitin; ubiquitin; made in house; host or cells: E. coli
T1 sequence (P08253 110-465 limits assumed): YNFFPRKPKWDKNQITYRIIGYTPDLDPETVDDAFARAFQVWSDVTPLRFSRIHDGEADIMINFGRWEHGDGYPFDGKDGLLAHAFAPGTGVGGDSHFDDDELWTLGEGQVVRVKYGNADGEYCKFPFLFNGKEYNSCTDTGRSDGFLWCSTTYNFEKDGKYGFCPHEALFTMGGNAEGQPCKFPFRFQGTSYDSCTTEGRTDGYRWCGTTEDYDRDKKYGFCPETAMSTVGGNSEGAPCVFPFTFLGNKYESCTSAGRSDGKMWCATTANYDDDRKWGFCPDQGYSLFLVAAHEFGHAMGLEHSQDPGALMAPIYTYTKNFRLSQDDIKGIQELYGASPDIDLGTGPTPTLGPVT
Kind of data set: Fluorometric MCA-peptide hydrolysis assay, gelatinase A (GelA). Type of data set: biochemical. The settings on record: apparent Ki; 10 μM MCA peptide substrate, 37° C., pH 7.5. The procedure, abridged:
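E. coli-expressed ubiquitin fusion of human proGelA catalytic plus fibronectin-like domains, autoactivated; 10 μM MCA-Pro-Leu-Gly-Leu-DPA-Ala-Arg-NH2, pH 7.5 Tricine/NaCl/CaCl2/Zn buffer, 2% DMSO, 37° C, 60 min. Fluorescence 328/393 nm; steady-state rates fitted to competitive inhibition or Morrison tight-binding equation giving Ki,app (≈Ki since [S]<<Km).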

Data set [2] addresses T2, catalytic domain of human stromelysin (Hsln) (Homo sapiens, UniProt P08254).
T2 construct: The catalytic domain of human stromelysin (Hsln) was obtained by expression and purification of a C-terminally truncated prostromelysin-1; made in house; host or cells: E. coli BL21
Kind of data set: Fluorometric MCA-peptide hydrolysis assay, stromelysin (Hsln). Particulars: apparent Ki; 10 μM MCA peptide substrate, 37° C., pH 7.5; read-out: Hsln (Ki,app). Type of data set: biochemical. The procedure, abridged: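 APMA-activated E. coli–expressed catalytic domain, with 10 μM MCA-Pro-Leu-Gly-Leu-DPA-Ala-Arg-NH2 at 37 °C. Buffer was pH 7.5 Tricine with NaCl, CaCl2, zinc acetate and 2% final DMSO; fluorescence read at ex 328/em 393 nm over 60 min. Ki,app from steady-state rates fitted to competitive or Morrison tight-binding equations.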

The next data set can be described thus: LogP. Type of data set: physicochemical.
The target in data set [3] is T3, human collagenase-3 (Coll3) (Homo sapiens, UniProt P45452).
T3 construct: the catalytic domain was liberated by treatment with 2 mM APMA at room temperature overnight; ubiquitin (N, cleaved yes); made in house; host or cells: E. coli
Kind of data set: Fluorometric MCA-peptide hydrolysis assay, collagenase-3 (Coll3). Type of data set: biochemical. Particulars: apparent Ki; 10 μM MCA peptide substrate, 37° C., pH 7.5; read-out: Coll3 (Ki,app).

A further data set has as its target T4, Human matrilysin (Matr) (Homo sapiens, UniProt P09237).
T4 construct: the catalytic domain was liberated by treatment with 2 mM APMA at 37° C. for 2 hours; ubiquitin (cleaved yes); made in house; host or cells: E. coli
T4 sequence (P09237 95-267): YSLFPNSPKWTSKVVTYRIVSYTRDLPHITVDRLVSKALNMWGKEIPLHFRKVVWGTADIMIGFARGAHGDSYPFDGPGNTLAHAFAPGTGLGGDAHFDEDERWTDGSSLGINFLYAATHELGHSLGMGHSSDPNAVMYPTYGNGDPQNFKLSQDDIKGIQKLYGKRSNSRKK
Kind of data set: Fluorometric MCA-peptide hydrolysis assay, matrilysin (Matr). The settings on record: apparent Ki; 10 μM MCA peptide substrate, 37° C., pH 7.5; read-out: Matr (Ki,app). Type of data set: biochemical. The procedure, abridged: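 Catalytic domain of E. coli-expressed human matrilysin assayed at 37° C, pH 7.5 Tricine buffer, 2% DMSO, with 10 μM MCA-Pro-Leu-Gly-Leu-DPA-Ala-Arg-NH2; fluorescence ex 328/em 393 nm over 60 min. Ki,app from steady-state rates fitted to competitive inhibition or Morrison tight-binding equation.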

Data set [4] can be described thus: Determination of inhibitor concentration in plasma after oral dosing. Type of data set: in vivo, Sprague Dawley rats. The settings on record: Sprague-Dawley, rat plasma, dose 50 mg/kg. The protocol:
The dosing solution consisted of the inhibitor dissolved in either a molar equivalent of HCl in water (vehicle A), in 60% aq. propylene glycol (vehicle B), or in 2.8 mg/mL sodium bicarbonate in 60% aqueous propylene glycol (vehicle C), yielding a final concentration that ranged from 10-15 mg/ml. Sprague Dawley rats (Hilltop Lab Animals, Scottsdale, Pa.) were dosed as a function of drug weight per body weight, usually 50 mgper kg. Blood was taken from the rats and centrifuged, and the plasma was stored in the freezer. Drug was extracted from a 50 μl plasma aliquot by adding 1 ml of acetonitrile, shaking for 2 minutes, centrifuging for 15 minutes at 4000 rpm, collecting the supernatant, and then evaporating it to dryness under a stream of nitrogen. The samples were reconstituted with 130 μl of mobile phase, shook for 2 minutes, and centrifuged for 15 minutes at 4000 rpm. The supernatant was collected and the samples were analyzed by injecting 100 μl of supernatant onto HPLC.
Quantitation of drug levels was accomplished by generating a standard curve of known drug amounts that were extracted from added plasma. Drug levels were plotted as a function of time and analyzed to provide area under the curve (AUC) and maximum concentration (Cmax) values.

Data set [5] addresses T5, fibroblast collagenase-1 catalytic domain (HFC) (Homo sapiens, UniProt P03956).
T5 construct: The catalytic domain of human collagenase-1 was expressed as a fusion protein with ubiquitin in E. coli; ubiquitin (cleaved yes); made in house; host or cells: E. coli
T5 sequence (P03956 100-269 limits assumed): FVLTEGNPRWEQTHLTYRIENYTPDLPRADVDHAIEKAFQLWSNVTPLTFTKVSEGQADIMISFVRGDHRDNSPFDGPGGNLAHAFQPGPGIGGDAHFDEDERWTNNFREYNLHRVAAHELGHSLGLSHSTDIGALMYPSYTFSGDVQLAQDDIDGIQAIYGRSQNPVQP
Kind of data set: Fluorometric MCA-peptide hydrolysis assay, fibroblast collagenase-1 (HFC). Type of data set: biochemical. Particulars: apparent Ki; 10 μM MCA peptide substrate, 37° C., pH 7.5; read-out: HFC (Ki,app). The protocol:
The catalytic domain of human collagenase-1 was expressed as a fusion protein with ubiquitin in E. coli (see Gehring, E. R., J Biol. Chem., 1995, 270, 22507). After purification of the fusion protein, the fibroblast collagenase-1 catalytic domain (HFC) was released either by treatment with purified, active stromelysin-1 (1:50 w/w ratio), which generated nearly 100% N-terminal Phe1, or by autoprocessing the concentrated collagenase-1 fusion and then incubating at 37° C. for 1 hour. Final purification was completed using zinc chelate chromatography.
Assays were performed in assay buffer (50 mM Tricine pH 7.5, 200 mM sodium chloride, 10 mM calcium chloride, 0.5 mM zinc acetate containing 2% dimethyl sulfoxide (DMSO)) once the substrate and inhibitor were diluted into it. Stock solutions of inhibitors were prepared in 100% DMSO. Stock solutions of the substrate were prepared in 100% DMSO at a concentration of 6 mM.
The assay method was based on the hydrolysis of MCA-Pro-Leu-Gly-Leu-DPA-Ala-Arg-NH2 (American Peptide Co.) at 37° C. (see Knight, C. G. et al., FEBS, 1992, 296, 263-266). The fluorescence changes were monitored with a Perkin-Elmer LS-50B fluorimeter using an excitation wavelength of 328 nm and an emission wavelength of 393 nm. The substrate concentration used in the assays was 10 μM. The inhibitor was diluted into the assays from a solution in 100% DMSO, and controls substituted an equal volume of DMSO so that the final DMSO concentration from inhibitor and substrate dilution in all assays was 2%. […] Proper determination of steady-state rates of substrate cleavage required assay lengths of 60 minutes to allow for complete equilibration of the enzyme-inhibitor complex.
The Km for the MCA peptide substrate with the matrix metalloproteinases is quite high and exceeds its solubility under assay conditions. Consequently, the apparent Ki (Ki,app) was determined to describe the strength of inhibition. However, in this case, Ki,app would be essentially equal to Ki since [S]<<Km. For the determination of Ki,app, the concentration of the inhibitor was varied at a constant and low concentration of substrate and the steady-state rates of fluorescence change determined. In most cases absorptive quench due to the presence of ligand was not observed. For slow-binding inhibitors, onset of inhibition curves were collected for at least 45 minutes so that equilibrium was established. Steady-state rates of fluorescence change were obtained by fitting a curve to an equation for a single exponential decay containing a linear phase. The fitted value of the linear phase was taken as the steady-state rate. The steady-state rates were fitted to the Michaelis equation describing competitive inhibition by non-linear methods. Data resulting from tight-binding inhibition was analyzed, and Ki,app determined by fitting the data to the tight-binding equation of Morrison (Biochem. Biophys. Acta, vol. 185, pp. 269-286 (1969)) by non-linear methods.

Where [6] appears, read: vehicle B (60% aq. propylene glycol).
Setting [7] is: vehicle B, dosed as the benzyl ester prodrug.

T2 sequence (P08254 100-272 limits assumed): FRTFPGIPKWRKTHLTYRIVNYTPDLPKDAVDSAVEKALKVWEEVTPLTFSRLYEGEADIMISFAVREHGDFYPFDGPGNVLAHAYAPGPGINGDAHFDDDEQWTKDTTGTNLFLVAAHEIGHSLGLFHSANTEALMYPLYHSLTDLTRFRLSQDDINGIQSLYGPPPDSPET

As usually defined, the pKi is the Ki on a negative log10 scale, so that one unit is a factor of ten. As a reminder, the logP is the decadic logarithm of the partition coefficient of the neutral form, usually between octanol and water. Lower therefore signals lower lipophilicity. On to `CNC(=O)[C@@H](NC(=O)[C@@H](CC(=O)O)n1ccc(-c2ccccc2)c1)C(C)(C)C` [1(b), N-[2,2-Dimethyl-1(S)-(methylcarbamoyl)propyl]-3(R)-(3-phenyl-1H-pyrrol-1-yl)succinamic acid], for which, in data set [1], the GelA (Ki,app) came to 5.91 nM. Further, the pKi is 5.70 in data set [2] and 7.74 in data set [3]. In “LogP”, this compound came in with a logP of -0.83.

`O=C(O)C[C@H](C(=O)N[C@H]1Cc2cn(c3ccccc23)CCOCCNC1=O)n1ccc(-c2ccccc2)c1` [Example 1(c), N-(8-Oxo-4-oxa-1,7-diazatricyclo[9.6.1.0^12,17]octadeca-11(18), 12,14,16-tetraen-9(S)-yl)-3(R)-(3-phenyl-1H-pyrrol-1-yl)succinamic Acid]: the GelA (Ki,app) in data set [1] was found to be 2 nM. Also, the pKi in data set [2] was 6.31; on Human matrilysin (Matr), 4.77; in data set [3], 9.06. Moreover, the logP in “LogP” was -0.97.

As to `CNC(=O)[C@@H](NC(=O)[C@@H](CC(=O)O)n1ccc(-c2ccc(-c3ccccc3)cc2)c1)C(C)(C)C` [Example 1(e), 3(R)-[3-(Biphenyl-4-yl)-1H-pyrrol-1-yl]-N-[2,2-dimethyl-1(S)-(methylcarbamoyl)propyl]succinamic Acid], in data set [1], the GelA (Ki,app) was found to be 0.108 nM. In addition, the pKi in data set [2] was 8.51; on Human matrilysin (Matr), 6.30; in data set [3], 9.05. In the data set “LogP”, the logP was found to be 1.19.

One may read the melting point as the temperature of the solid-liquid transition. For orientation: AUC means the area under the concentration-time curve, a measure of exposure. One may read the Cmax as the peak of the concentration-time curve. With `CNC(=O)[C@@H](NC(=O)[C@@H](CC(=O)O)n1ccc(-c2ccc(C#N)cc2)c1)C(C)(C)C` [Example 1(m), 3 (R)-[3-(4-Cyanophenyl)-1H-pyrrol-1-yl]-N-[2,2-dimethyl-1(S)-(methylcarbamoyl)propyl]succinamic Acid], the melting point was in the range of 138 to 140 °C. Besides, the GelA (Ki,app) in data set [1] came to 0.41 nM. In addition, in data set [2], the pKi is 7.30. Moreover, in data set [4] (setting [6]), the AUC is 967 ng·h/mL and the Cmax was 590 ng/mL. For the same compound, in data set [3], the pKi is 9.00. Besides, in data set [5], the pKi was 6.00.

On to `CNC(=O)[C@@H](NC(=O)[C@@H](CC(=O)O)n1ccc(-c2ccc(-c3ccc(C(N)=O)cc3)cc2)c1)C(C)(C)C` [Example 5(e), 3(R)-[3-(4′-Carbamoylbiphenyl-4-yl)-1H-pyrrol-1-yl]-N-(2,2-dimethyl-1(S)-(methylcarbamoyl)propyl)succinamic Acid], for which the GelA (Ki,app) in data set [1] amounted to 0.109 nM. Also, the pKi in data set [2] was 8.77; on Human matrilysin (Matr) it was 6.74; in data set [3], 10.12; in data set [5] it was 6.28. In the data set “LogP”, the logP is 1.71.

For the compound `CNC(=O)[C@@H](NC(=O)[C@@H](CC(=O)O)n1ccc(-c2ccc(-c3ccncc3)cc2)c1)C(C)(C)C` [Example 6(b), N-(2,2-Dimethyl-1(S)-(methylcarbamoyl)propyl)-3(R)-[3-(4-(pyridin-4-yl)phenyl)-1H-pyrrol-1-yl]succinamic Acid], the GelA (Ki,app) in data set [1] was 0.066 nM. Also, the pKi in data set [2] was 8.44; in data set [3] it was 9.68; in data set [5] it was 5.54. Besides, in data set [4] (setting [7]), the AUC is 617 ng·h/mL. For the same compound, the Cmax in data set [4] (setting [7]) came out at 300 ng/mL.

For `CC(C)(C)[C@H](NC(=O)[C@@H](CC(=O)O)n1ccc(-c2ccc(-c3ccncc3)cc2)c1)C(=O)Nc1ccncc1` [Example 7(b), N-[2,2-Dimethyl-1(S)-(pyridin-4-ylcarbamoyl)propyl]-3(R)-[3-[4-(pyridin-4-yl)phenyl]-1H-pyrrol-1-yl]succinamic Acid], the GelA (Ki,app) in data set [1] turned out to be 0.007 nM. Moreover, the pKi in data set [2] was 9.54; on Human matrilysin (Matr), 8.30; in data set [3], 11.00; in data set [5], 6.34. The compound further gave an AUC in data set [4] (setting [6]) of 400 ng·h/mL. For the same compound, the Cmax in data set [4] (setting [6]) was 210 ng/mL.
